Reference: patent publication US11318131B2, “Nanoliposomal irinotecan for use in treating small cell lung cancer” (Ipsen Biopharm Ltd., priority 2015, dated 2022)
Where two headings read alike, the source gives them in different places.

Tests used:
NCI-H1048 xenograft [1] = assay: Second line SCLC model: NCI-H1048 after carboplatin plus etoposide; assay type: in vivo; settings: weekly: nal-IRI 16 mg/kg IV; irinotecan 33 mg/kg IV; topotecan 1.66 mg/kg/wk IP days 1 and 2
Method: As described below, mice bearing NCI-H1048 SCLC tumors were treated with a carboplatin plus etoposide, a first line regimen in SCLC. Once the tumors escaped growth control by carboplatin plus etoposide, mice were randomized to either continue treatment with carboplatin plus etoposide or switch to second line treatment with either irinotecan liposome injection, non-liposomal irinotecan or topotecan.
NOD/SCID mice with NCIH1048 SCLC xenograft tumors were treated weekly with the combination of 30 mg/kg carboplatin plus 25 mg/kg etoposide. […] . […] . […] . FIG. 21B is a survival graph for mice on each of the treatments.

[2] = test system: small cell lung cancer (SCLC); settings: second line SCLC, cited from earlier work; for overall survival: certain regimens; for grade 3 or greater diarrhea / grade 3 or greater neutropenia rates / overall response rates / overall survival (OS) / progression free survival (PFS): topotecan 1.5 mg/m^2 days 1-5 every 3 weeks, non-liposomal irinotecan 300 mg/m^2 every 3 weeks
DMS-53 xenograft = assay: DMS-53 SCLC xenograft; settings: nal-IRI 16 mg/kg IV, topotecan 0.83 mg/kg/wk days 1-2, weekly
DMS-114 xenograft [3] = assay: DMS-114 SCLC xenograft, NOD/SCID mice
NCI-H1048 xenograft [4] = assay: NCI-H1048 SCLC xenograft, treatment naive; settings: for anti-tumor activity / response (in words): NCI-H1048, irinotecan 33 mg/kg IV, weekly
DMS-114 xenograft [5] = assay: DMS-114 xenograft, topotecan-treated tumors; settings: nal-IRI 16 mg/kg; irinotecan 33 mg/kg
DMS53 SCLC cell line = assay: SN-38 in vitro growth and viability assay; assay type: cell-based
DMS114 SCLC cell line = test system: DMS114 SCLC cell line
Method: (§1) Irinotecan liposome injection was administered intravenously to mice bearing xenograft tumors. At 24 hours post administration, mice were sacrificed and tumors were harvested. Irinotecan and SN-38 in tumors were measured by high performance liquid chromatography (HPLC). Data were normalized to injected dose per tumor weight. […] Cell growth inhibition kinetics of SN-38 in the cell lines was determined using IncuCyte® ZOOM System.

NCI-H1048 SCLC cell line [6] = test system: NCI-H1048 SCLC cell line
Method: as §1

SW1271 SCLC cell line = assay: SN-38 in vitro growth and viability assay; assay type: cell-based
DMS-114 SCLC cell line = assay: Cell growth inhibition kinetics, IncuCyte ZOOM System; assay type: cell-based; settings: DMS-114, time-course of 88 hours
NCI-H1048 SCLC cell line [7] = assay: as above; assay type: cell-based; settings: NCI-H1048, time-course of 88 hours
[8] = nal-IRI 16 mg/kg IV, topotecan 0.83 mg/kg/wk days 1-2 IP

Compound: CC[C@@]1(O)C(=O)OCc2c1cc1n(c2=O)Cc2cc3c(CN(C)C)c(O)ccc3nc2-1 [topotecan]
- anti-tumor activity in carboplatin plus etoposide-treated SCLC tumors (in words) (NCI-H1048 xenograft [1]): seems to be active after 1-2 cycles but progress quickly after 3rd dose
- overall survival ([2]; all patients): 7.8 months
- overall survival ([2]; refractory patients): 5.7 months
- overall survival ([2]; sensitive patients): 9.9 months
- grade 3 or greater diarrhea [2]: less than 5%
- grade 3 or greater neutropenia rates [2]: 28-88%
- overall response rates [2]: 7-24%
- overall survival (OS) [2]: 5.0-8.9 months
- progression free survival (PFS) [2]: 3.1-3.7 months
- anti-tumor activity / response (in words) (DMS-53 xenograft): limited tumor growth control
- anti-tumor activity of bolus (day 1) compared to fractionated (days 1 & 2) dosing (DMS-114 xenograft [3]; same dose intensity, FIG. 15 (DMS-114, NCI-H1048)): less anti-tumor activity
- mice with complete tumor regressions after 4 cycles of treatment (NCI-H1048 xenograft [4]; Example 11, nal-IRI 16 mg/kg salt q1w, topotecan 0.83 mg/kg/week Day 1-2): 0 out of 7
- mice with complete regressions of their tumors (NCI-H1048 xenograft [4]; Example 15, n=10, nal-IRI 16 mg/kg IV, topotecan 0.83 mg/kg/wk days 1-2 IP): 0 out of 10
- anti-tumor activity / response (in words) (NCI-H1048 xenograft [4]; [8]): limited tumor growth control

Compound: CCc1c2c(nc3ccc(OC(=O)N4CCC(N5CCCCC5)CC4)cc13)-c1cc3c(c(=O)n1C2)COC(=O)[C@]3(O)CC [non-liposomal irinotecan, (S)-4,11-diethyl-3,4,12,14-tetrahydro-4-hydroxy-3,14-dioxo1H-pyrano[3′,4′:6,7]-indolizino[1,2-b]quinolin-9-yl-[1,4′bipiperidine]-1′-carboxylate]
- anti-tumor activity in carboplatin plus etoposide-treated SCLC tumors (in words) (NCI-H1048 xenograft [1]): active but after 3rd cycle some tumors are trending regrowth
- grade 3 or greater diarrhea [2]: 0-13%
- grade 3 or greater neutropenia rates [2]: 21-23%
- overall response rates [2]: 0-33%
- overall survival (OS) [2]: 4.6-6.9 months
- progression free survival (PFS) [2]: 1.7-2.8 months
- anti-tumor activity / response (in words) (DMS-114 xenograft [3]; DMS-114, nal-IRI 16 mg/kg IV, irinotecan 33 mg/kg IV, topotecan 0.83 mg/kg/wk days 1-2 IP, weekly): became less responsive after 2-3 cycles
- anti-tumor activity / response (in words) (NCI-H1048 xenograft [4]; [8]): progress after initially responding to treatment
- responsiveness of topotecan-treated DMS114 tumors (DMS-114 xenograft [5]): not

Compound: CCc1c2c(nc3ccc(O)cc13)-c1cc3c(c(=O)n1C2)COC(=O)[C@]3(O)CC [SN-38]
- decrease in cell viability (DMS53 SCLC cell line): > 90%
- decrease in cell viability (DMS114 SCLC cell line): > 90%
- decrease in cell viability (NCI-H1048 SCLC cell line [6]): > 90%
- decrease in cell viability (SW1271 SCLC cell line): > 90%
- concentration with cell killing after prolonged incubation times (DMS-114 SCLC cell line): ≥ 10 nM
- concentration with effective cell growth inhibition (DMS-114 SCLC cell line): 1 to 10 nM
- concentration with cell killing after prolonged incubation times (NCI-H1048 SCLC cell line [7]): ≥ 10 nM
- concentration with effective cell growth inhibition (NCI-H1048 SCLC cell line [7]): 1 to 10 nM
